Results from ChEMBL document CHEMBL4732271, “Novel Substituted Thiadiazoles as Splicing Modulators for Modulating Splicing of mRNA and Uses Thereof for Treating Diseases” (ACS Med Chem Lett, 2021).

Columns and labels:
SMN2 pre-mRNA [1] = assay: Modulation of SMN2 mRNA FL splicing in human spinal muscular atrophy patient fibroblasts incubated for 24 hrs by qPCR analysis; assay type: tissue-based
SMN2 pre-mRNA [2] = assay: Modulation of SMN2 mRNA FL splicing in human spinal muscular atrophy patient fibroblasts assessed as SMN2 protein potency incubated for 48 hrs by mesoscale discovery assay
SMN2 pre-mRNA [3] = assay: Modulation of SMN2 mRNA D7 splicing in human spinal muscular atrophy patient fibroblasts incubated for 24 hrs by qPCR analysis; assay type: tissue-based

Row | SMILES | EC50 (SMN2 pre-mRNA [1]) | EC50 (SMN2 pre-mRNA [2]) | IC50 (SMN2 pre-mRNA [3])
1 | CN(c1nnc(-c2cc(F)c(-c3cnn(C)c3)cc2O)s1)[C@@H]1C[C@H]2CC[C@H](N2)[C@@H]1F | 16 nM | 0.01 nM | 0.01 nM
2 | CN(c1nnc(-c2ccc(-c3cnn(C)c3)cc2O)s1)[C@@H]1C[C@H]2CC[C@H](N2)[C@@H]1F | 16 nM | 0.01 nM | 0.01 nM
3 | CN(c1nnc(-c2ccc(-c3cnn(CF)c3)cc2O)s1)[C@@H]1C[C@H]2CC[C@H](N2)[C@@H]1F | 16 nM | 0.01 nM | 16 nM
4 | CN(c1nnc(-c2ccc(-c3cnn(C)c3)cc2O)s1)[C@H]1C[C@@H]2CCC[C@@H](N2)[C@H]1F | 16 nM | 0.01 nM | 0.01 nM
5 | COc1cc(-c2ccc(-c3nnc(N(C4CC4)[C@@H]4C[C@H]5CC[C@H](N5)C4F)s3)c(O)c2)cc(F)n1 (stereo partly drawn) | 16 nM | 0.01 nM | 0.01 nM
6 | CN(c1nnc(-c2ccc(-c3cn[nH]c3)cc2O)s1)[C@@H]1C[C@H]2CC[C@H](N2)[C@@H]1F | 0.01 nM | 0.01 nM | 0.01 nM
